Source: PubChem BioAssay (NCI)
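The compound was tested at five concentrations on cells cultured in 96-well plates, with a 48-hour exposure period. GI50 marks 50% less growth. TGI: concentration producing complete growth inhibition.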

Columns and labels:
Test in all cases: growth of human tumour cells (NCI), 48 h
COLO 205 colon = tested on: COLO 205 colon
HOP-62 NSCLC = tested on: HOP-62 NSCLC
HS 578T breast = tested on: HS 578T breast
IGROV1 ovarian = tested on: IGROV1 ovarian
MALME-3M melanoma = tested on: MALME-3M melanoma
MDA-MB-231 breast = tested on: MDA-MB-231 breast
OVCAR-3 ovarian = tested on: OVCAR-3 ovarian
OVCAR-5 ovarian = tested on: OVCAR-5 ovarian
SNB-19 CNS = tested on: SNB-19 CNS
A549 NSCLC = tested on: A549 NSCLC

SMILES	GI50 (COLO 205 colon) [µM]	TGI (COLO 205 colon) [µM]	GI50 (HOP-62 NSCLC) [µM]	TGI (HOP-62 NSCLC) [µM]	GI50 (HS 578T breast) [µM]	TGI (HS 578T breast) [µM]	GI50 (IGROV1 ovarian) [µM]	TGI (IGROV1 ovarian) [µM]	GI50 (MALME-3M melanoma) [µM]	TGI (MALME-3M melanoma) [µM]	GI50 (MDA-MB-231 breast) [µM]	TGI (MDA-MB-231 breast) [µM]	GI50 (OVCAR-3 ovarian) [µM]	TGI (OVCAR-3 ovarian) [µM]	GI50 (OVCAR-5 ovarian) [µM]	TGI (OVCAR-5 ovarian) [µM]	TGI (SNB-19 CNS) [µM]	TGI (A549 NSCLC) [µM]	GI50 (A549 NSCLC) [µM]	GI50 (SNB-19 CNS) [µM]
COc1cc2c3c(n(CCCOC(=O)C(F)(F)F)c(=O)c2cc1OC)-c1cc2c(cc1C3=O)OCO2	0.519	> 100	< 0.01	< 0.0329	52.7	> 100	0.555	> 100	0.159	> 100	0.127	> 49.9	0.0425	0.306	0.14	43.8	> 100			
O=S(=O)(c1ccccc1)C1CN2OC1(S(=O)(=O)c1ccccc1)CC2c1ccc(Br)cc1 (centres undefined)				> 100				> 100		> 100				> 100		> 100	> 100	> 100		
CCCO/S(=N\S(=O)(=O)c1ccccc1)c1ccccc1[N+](=O)[O-] (centres undefined)		> 100		> 100				> 100		> 100				> 100		> 100	> 100	> 100		
CCOc1ccncc1[N+](=O)[O-]				> 100		> 100		> 100		> 100		> 100				> 100	> 100	> 100		
Cc1ccc(S(=O)(=O)c2ccc(N)cc2)cc1				> 100				> 100		> 100				> 100		> 100		> 100		
COc1ccc(CCNC(=O)c2ccc(NC3=C(Cl)C(=O)N(Cc4ccccc4)C3=O)cc2)cc1OC	3.94	> 100	45	> 100	4.62	> 100					4.52	> 100	10.9	> 100	16.9	43.7	> 100	> 100	33.1	27.5
NC(=O)OCCn1cc(-c2nc(-c3c[nH]c4ncccc34)cs2)c2ccccc21	2.06	9.57	1.07	7.87	1.07	4.25	0.138	1.95			1.1	4.38	1.27	3.83	2.21	43.8	43.8	23	2.34	2.57
O=Cc1ccc2c(c1-c1c(C=O)ccc3c1OCO3)OCO2		> 100		> 100				> 100		> 100				> 100		> 100	> 100	> 100		
O=P1(c2ccccc2)CCCCC1		> 100		> 100				> 100		> 100				> 100		> 100	> 100	> 100		
O=C(Nc1ccc(F)cc1)c1cc(S(=O)(=O)Nc2nc3ccccc3o2)c(SCc2ccccc2)cc1Cl	46.2	> 100	17.7	33.5	19.1	44.5	0.611	21.3			14.5	29.5	14.8	28.1	19.7	35.1	> 100	38.4	18.3	47
